System: A549 cells
Assay: Transfection of A549 cells with POP:cholesterol vesicles complexed to pCMV-sport-β-gal plasmid (β-galactosidase activity, absorbance 420 nm)
Type: cell-based
Conditions: 50 μM chloroquine added during transfection with POP:cholesterol vesicle-plasmid complexes
Description: Transfection experiments were carried out with the endotoxin free pCMV-sport-β-gal plasmid. 96-well plates were seeded with A549 calls (10,000 cells well^−1, 50,000 cells mL^−1) and incubated overnight with DMEM/F10+10% foetal calf serum (FCS)-Life Sciences, UK in 2% CO2 at 37° C. […] The mixture was incubated for 4 h (2% CO2, 37° C.) after which the media and POP-plasmid complexes were removed and replaced with DMEM/F10+10% FCS (0.2 mL). Cells were fed daily (DMEM/F10+10% FCS) over a 48 h period at the end of which they were lysed by the addition of 0.05 mL triton X-100 buffer (0.1% triton X-100, 0.25M tris hydrochloride, pH=8.0). The cells were then frozen at −70° C. and thawed at room temperature and 0.5% bovine serum albumin in phosphate buffered saline (0.05 mL) added to each well. This was followed by the addition of 0.15 mL ONPG (o-nitrophenyl β-D-galactopyranoside) in buffer (0.06M sodium dibasic phosphate, 0.001M magnesium chloride, 0.01M potassium chloride, 0.05M β-mercaptoethanol, pH=8.0). β-galactosidase activity was estimated by measuring the absorbance (420 nm) on a microtitre plate reader.

## CCN(CC)CCCC(C)Nc1ccnc2cc(Cl)ccc12 (stereo not shown) [chloroquine]
  Effect on transfection levels: increase transfection levels

Reference: patent publication US6576254B1, “Polyamino acid vesicles” (University of Strathclyde, priority 1998, dated 2003)
